# Assay: gradient 5% acetonitrile 3 min, to 50% in 2 min, to 85% in 15 min, held 3 min, 100 µL/min
# Settings: column: Zorbax Extend-C18 2.1 x 50 mm; eluents: water / acetonitrile, 0.1% formic acid
# How it was run: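 Standards, all pure, were combined into mixtures of ~100 molecules and run at 100 μL/min on a Zorbax Extend-C18 column (2.1 × 50 mm, 1.8 μm) with water and acetonitrile, each containing 0.1% formic acid. A coupled quadrupole time-of-flight mass spectrometer operated in positive and negative ionization mode. Retention time values come from computationally picked adduct peaks, each inspected manually.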
row,RP-LC retention time,Structure (SMILES)
1,820 s,CCCn1cc(CCNS(=O)(=O)c2ccccc2F)c2cccnc21
2,832 s,Cc1ccc(-c2noc(-c3cccc(S(=O)(=O)NCCCN4CCCCCC4)c3)n2)cc1
3,709 s,CC(C)n1c(N2CCN(C(=O)c3ccccn3)CC2)cc(=O)n(C(C)C)c1=O
4,877 s,COc1ccc(-c2nnc(COc3ccc(NC(=O)c4ccc(Cl)nc4)cc3)o2)cc1
5,670 s,COc1ccc(OC)c(NC(=O)Cn2ccc3c(=O)n(C)c(=O)n(C)c32)c1
6,625 s,CCCNC(=O)c1c2c(nc3ccc(C)cc13)CCC2
7,1020 s,Cc1ccccc1OCc1nc(CCN(C)C(=O)CC2CCCC2)no1
8,1010 s,CCn1c(C(=O)N(C)C2CCCCC2)cc2c(=O)oc3ccccc3c21
9,648 s,C[C@@H](NC(=O)c1ccc(F)c(F)c1)C(=O)NCc1cscn1
10,745 s,COc1ccc(S(=O)(=O)N2CCc3nn(CC(C)C)c(=O)n3CC2)cc1OC
11,681 s,COc1ccccc1NC(=O)Cn1cnc2nc(N3CCCC(C(=O)NC4CC4)C3)sc2c1=O (centres undefined)
12,833 s,CCn1c(=O)c(C)nc2cc(C(=O)NCCc3c[nH]c4ccc(Cl)cc34)ccc21
13,553 s,O=C([C@@H]1C[C@H](Oc2cccnc2)CN1C(=O)c1ccoc1)N1CCCC1
14,953 s,CC(C)CCNC(=O)C1(C)CN(S(=O)(=O)c2ccccc2)CC(=O)N1c1cccc(F)c1 (centres undefined)
15,850 s,Cc1ccc(C(=O)N2CCN(S(=O)(=O)c3cc4c5c(c3)CCC(=O)N5CCC4)CC2)cc1C
16,1250 s,CC(C)CN(CC(C)C)c1nc(-c2ccc([N+](=O)[O-])cc2)nc2ccccc12
17,953 s,c1cncc(-c2nc(-c3ccnc(N4CCOCC4)c3)no2)c1
18,727 s,COc1ccc(NS(=O)(=O)c2cc(-c3nc(C)c(C(=O)N4CCCC4)s3)n(C)c2)cc1OC
19,1220 s,Fc1cccc(-c2nc(-c3ccc(-n4cccn4)nc3)no2)c1
20,896 s,Cc1ccc(CNC(=O)NCCC2CCN(S(=O)(=O)c3ccc(F)cc3)CC2)cc1
21,668 s,O=C(Nc1ccc2c(c1)OCCO2)c1cccc(N2CCNC(c3ccccc3)C2)n1 (centres undefined)
22,871 s,Cc1ccc(NC(=O)Cn2nc3c(Oc4cc(C)cc(C)c4)nccn3c2=O)cc1
23,776 s,CCCNC(=O)Nc1ccc(NC(=O)N2CCCC(C(=O)NCC3CCCCC3)C2)cc1 (centres undefined)

row,RP-LC retention time,Structure (SMILES)
1,1010 s,Cc1ccc(-c2noc(C3CC(=O)N(c4ccccc4Cl)C3)n2)cc1 (centres undefined)
2,751 s,CC1(C(=O)NCc2ccccc2)Cc2ccccc2C(=O)N1C1CC1 (centres undefined)
3,754 s,Cc1ccc(C)c(NC(=O)N2CCC(N3CCN(Cc4ccc(F)cc4)C(=O)C3=O)CC2)c1
4,602 s,CC(C)CN1CCN(C(=O)c2ccc(-c3cccs3)nc2)CC1
5,635 s,O=C(Nc1ccc2c(c1)OCCO2)N1CCN(Cc2nc3cccnc3n2-c2ccccc2)CC1
6,779 s,Cn1nc(CN(C(=O)c2ccccc2F)c2ccccc2)c2c1CCN(S(C)(=O)=O)C2
7,896 s,Cc1ccc(C)c2sc(N(C)CC(=O)Nc3ccc(-n4cnnn4)cc3)nc12
8,677 s,COc1cccc(C(O)CN2CCN(c3ccc(C)cc3)CC2)c1 (centres undefined)
9,715 s,COc1ccc(NC(=O)Nc2cccc(-c3ccc(N4CCOCC4)nn3)c2)cc1Cl
10,618 s,COc1ccc(C(C)NC(=O)c2cc(NC(C)=O)cc3nc(C)ccc23)cc1 (centres undefined)
11,773 s,CCCN(CC1CCOC1)C(=O)c1ccc(F)cc1Cl (centres undefined)
12,822 s,Cn1c(=O)n([C@H]2CCCN(S(=O)(=O)c3cccc4nsnc34)C2)c2ncccc21
13,596 s,CCN(CC)CCCNC(=O)Cn1c2ccccc2c2cnn(C)c(=O)c21
14,952 s,Cc1cc(NC(=O)C(C)C2CCN(C(=O)Nc3ccc(Cl)cc3)CC2)ccc1F (centres undefined)
15,874 s,CSc1ncn(-c2nc(NC(C)C)nc(N(C)C)n2)n1
16,804 s,COc1cccc(NC(=O)Nc2cc3c(cc2Oc2ccccc2)n(C)c(=O)n3C)c1
17,1020 s,COc1ccc(-c2nc(-c3ccc4c(c3)oc(=O)n4C)no2)cc1
18,889 s,Cc1cc(C(=O)Nc2cccc(F)c2)nc2ccnn12
19,619 s,CO[C@H]1C(=O)N(C2CCN(S(=O)(=O)c3cccs3)CC2)[C@H]1c1ccncc1
20,776 s,O=C(c1ccc(F)c(F)c1)N1CCC(n2c(-c3ccco3)nc3cccnc32)C1 (centres undefined)
21,1190 s,CCCCN(C)C(=O)Cn1c(=O)c2cnc(-c3ccc(Cl)cc3)nc2n(CC)c1=O
22,764 s,O=C(NCc1ccccc1)C1CC(=O)N(CCc2c[nH]c3ccc(F)cc23)C1 (centres undefined)
23,737 s,CCOc1ccc(NC(=O)CSc2ncc(S(=O)(=O)c3ccccc3)c(=O)[nH]2)cc1

row,RP-LC retention time,Structure (SMILES)
1,712 s,Cc1ccc(-c2cc3n(n2)CCCN(C(=O)C2CCOC2)C3)cc1 (centres undefined)
2,830 s,O=C(NCC1CCCCC1)C1CCN(C(=O)c2ncn3c2COC(c2ccc(Cl)cc2)C3)CC1 (centres undefined)
3,712 s,Cc1ccccc1C(=O)Nc1ccc(C(=O)N2CCCC(N(C)C)c3ccccc32)cc1 (centres undefined)
4,640 s,CCCc1cc(N2CCN(C(=O)COc3ccccc3)CC2)nc2nncn12
5,611 s,COc1ccc(-c2noc(Cn3ccnc3C)n2)cc1
6,849 s,Fc1ccccc1-c1nc2ccn(Cc3ccc(-c4ccc(C(F)(F)F)cc4C(F)(F)F)nn3)cc-2n1
7,582 s,Cn1nc(N2CCC(NC(=O)CCn3cccn3)C2)ccc1=O (centres undefined)
8,594 s,COCC(C)(O)CNC(=O)Nc1cccs1 (centres undefined)
9,864 s,CC1Oc2ccc(NC(=O)C3CCCC3)cc2CN(Cc2ccccc2F)C1=O (centres undefined)
10,1160 s,CC1CCC(NC(=O)c2nnn(Cc3ccc(F)cc3)c2-n2cccc2)CC1 (centres undefined)
11,704 s,CCOc1ccc(NC(=O)NCCc2cn(CC)c3ncccc23)cc1
12,946 s,Cc1ccc(N2C(=O)CN(S(C)(=O)=O)CC2(C)C(=O)NC2CCCCCC2)cc1Cl (centres undefined)
13,768 s,COCCCNC(=O)C1CCCN(S(=O)(=O)c2ccc(OC)c(C)c2)C1 (centres undefined)
14,663 s,Cc1ccc(CNC(=O)CC2CCOCC2)o1
15,794 s,CCOC(=O)c1ccc(NC(=O)CSc2nnc(-c3cccn(CC)c3=O)n2C)cc1
16,1060 s,CC1CCN(c2cc(-n3cnc(C(=O)N4CCc5ccccc5C4)c3)ncn2)CC1
17,704 s,CCn1cnc(S(=O)(=O)N2CCC(C(=O)Nc3cc(OC)cc(OC)c3)CC2)c1
18,842 s,CCCN(CC1CCOC1)C(=O)c1ccc(F)c(Cl)c1 (centres undefined)
19,1140 s,COc1ccc(CN2C=C(C(=O)OCc3ccccc3C)C(C)=NS2(=O)=O)cc1
20,716 s,c1ccc(CC2CCN(Cc3nc(-c4ccc(N5CCOCC5)nc4)no3)CC2)cc1
21,682 s,Cc1nnc(NC(=O)CCc2csc(NC(=O)NC3CCCCC3)n2)s1
22,811 s,O=C(Nc1nc2c(s1)CN(C(=O)Nc1ccc(Cl)c(Cl)c1)CC2)c1cnccn1
23,656 s,Fc1ccc(-c2noc(CCc3nnc4ccc(N5CCN(Cc6ccccc6)CC5)nn34)n2)cc1

row,RP-LC retention time,Structure (SMILES)
1,712 s,Cn1nccc1C(=O)N1CCC(c2cc(-c3ccc(F)cc3)n[nH]2)CC1
2,608 s,Nc1ccc(OC(=O)Nc2ccc(O)cc2)cc1
3,627 s,O=C(NCCc1csc(C2CCCN(C(=O)C3CCCO3)C2)n1)C1CC1 (centres undefined)
4,656 s,O=C(NCCn1c(CCc2ccccc2)nc2ccccc21)NCc1ccco1
5,980 s,CCCNC(=O)c1nnn(Cc2ccc(Cl)cc2)c1-n1cccc1
6,855 s,Cc1ccc(-c2ccc(N3CCCC(C(=O)NCCC4=CCCCC4)C3)nn2)cc1 (centres undefined)
7,947 s,COCC(=O)N(CC(=O)N1CCc2sccc2C1COc1ccc(C(C)C)cc1)C1CC1 (centres undefined)
8,1040 s,C=CCn1c(=O)c2c(nc3n2CC(C)CN3c2cc(C)cc(C)c2)n(C)c1=O (centres undefined)
9,917 s,Cc1ccc(F)c(-n2nnc(C(=O)O)c2-c2ccccn2)c1
10,1130 s,Cc1nc2cc(-c3noc(-c4ccncc4)n3)ccc2n(C2CCCC2)c1=O
11,570 s,CC1CCCCN1CCNC(=O)C1CCCN(c2cnc3nccnc3c2)C1 (centres undefined)
12,628 s,Cc1oc2c(c1C(=O)Nc1ccccc1Br)C1=NCCN1C=N2
13,593 s,Cc1ccc(C)c(N2CCN(Cc3nc4nc(C)cc(N5CCN(C)CC5)n4n3)CC2)c1
14,793 s,Cc1nnc(-c2ccc3ccn(CC(=O)NCC(C)c4ccccc4)c3c2)o1 (centres undefined)
15,848 s,COC(=O)c1c(NCCCc2ccccc2)c2cc(F)ccc2[nH]c1=O
16,1090 s,CSc1ncn(-c2nc(N(C)C)nc(N3CCCCC3)n2)n1
17,955 s,Cc1cc(-c2nnc(NC(=O)C(C)(C)Oc3ccc(Cl)cc3)o2)c(C)o1
18,1070 s,Cc1ccc2c(c1)N(Cc1cccc(F)c1)N=C(C(=O)N1CCC(C)CC1)S2(=O)=O
19,685 s,CNC(=O)c1csc(NC(=O)c2cc(Cl)ccc2Cl)n1
20,588 s,CCCNC(=O)N1CCC(CCOc2cccnc2)CC1

# From the METLIN SMRT retention time set (Domingo-Almenara et al. 2019)
